System: 677734-321-R-J1-PDC complex spheroid viability
Test: Anticancer human tumor 677734-321-R-J1-PDC patient-derived soft tissue sarcoma cell line growth inhibition [POLQ]
Settings: for IC50: curve of first compound; for viability, T/C: stronger effect = lower value
Procedure, shortened: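 PDC + HUVEC + MSC complex spheroids; POLQ inhibitors ± partner drugs; top conc. at/near clinical Cmax, else 10 microM (SN-38 1 microM), half-log dilutions; 37 degrees C, 5% CO2.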

[1] = second compound 0.0316 µM, first compound 0.0316 µM
[2] = second compound 0.0316 µM, first compound 0.1 µM
[3] = second compound 0.0316 µM, first compound 0.316 µM
[4] = second compound 0.0316 µM, first compound 1 µM
[5] = second compound 0.0316 µM, first compound 3.16 µM
[6] = second compound 0.0316 µM, first compound 10 µM
[7] = second compound 0.1 µM, first compound 0.0316 µM
[8] = second compound 0.1 µM, first compound 0.1 µM
[9] = second compound 0.1 µM, first compound 0.316 µM
[10] = second compound 0.1 µM, first compound 1 µM
[11] = second compound 0.1 µM, first compound 3.16 µM
[12] = second compound 0.1 µM, first compound 10 µM
[13] = second compound 0.316 µM, first compound 0.0316 µM
[14] = second compound 0.316 µM, first compound 0.1 µM
[15] = second compound 0.316 µM, first compound 0.316 µM
[16] = second compound 0.316 µM, first compound 1 µM
[17] = second compound 0.316 µM, first compound 3.16 µM
[18] = second compound 0.316 µM, first compound 10 µM
[19] = second compound 1 µM, first compound 0.0316 µM
[20] = second compound 1 µM, first compound 0.1 µM
[21] = second compound 1 µM, first compound 0.316 µM
[22] = second compound 1 µM, first compound 1 µM
[23] = second compound 1 µM, first compound 3.16 µM
[24] = second compound 1 µM, first compound 10 µM
[25] = second compound 3.16 µM, first compound 0.0316 µM
[26] = second compound 3.16 µM, first compound 0.1 µM
[27] = second compound 3.16 µM, first compound 0.316 µM
[28] = second compound 3.16 µM, first compound 1 µM
[29] = second compound 3.16 µM, first compound 3.16 µM
[30] = second compound 3.16 µM, first compound 10 µM
[31] = second compound 10 µM, first compound 0.0316 µM
[32] = second compound 10 µM, first compound 0.1 µM
[33] = second compound 10 µM, first compound 0.316 µM
[34] = second compound 10 µM, first compound 1 µM
[35] = second compound 10 µM, first compound 3.16 µM
[36] = second compound 10 µM, first compound 10 µM
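Note: spheroids exposed to compounds for one week.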
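Throughout, for viability, T/C: 100% = vehicle DMSO treated spheroids.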

## C=CC(=O)N1CCN(c2nc(=O)n(-c3c(C)ccnc3C(C)C)c3nc(-c4c(O)cccc4F)c(F)cc23)C(C)C1 (stereo not given) + Cc1cccc(N(C)C(=O)C2C(O)CCN2c2nc(C)cc(C(F)(F)F)c2C#N)c1
Second compound 0.0316 µM
  IC50: > 10 µM
Second compound 0.1 µM
  IC50: > 10 µM
Second compound 0.316 µM
  IC50: > 10 µM
Second compound 1 µM
  IC50: > 10 µM
Second compound 3.16 µM
  IC50: > 10 µM
Second compound 10 µM
  IC50: > 10 µM
[1]
  viability, T/C: 108%
[2]
  viability, T/C: 99.5%
[3]
  viability, T/C: 103%
[4]
  viability, T/C: 104%
[5]
  viability, T/C: 110%
[6]
  viability, T/C: 88%
[7]
  viability, T/C: 105%
[8]
  viability, T/C: 104%
[9]
  viability, T/C: 101%
[10]
  viability, T/C: 107%
[11]
  viability, T/C: 102%
[12]
  viability, T/C: 93.4%
[13]
  viability, T/C: 106%
[14]
  viability, T/C: 105%
[15]
  viability, T/C: 103%
[16]
  viability, T/C: 103%
[17]
  viability, T/C: 113%
[18]
  viability, T/C: 92%
[19]
  viability, T/C: 109%
[20]
  viability, T/C: 94.9%
[21]
  viability, T/C: 107%
[22]
  viability, T/C: 104%
[23]
  viability, T/C: 108%
[24]
  viability, T/C: 85.5%
[25]
  viability, T/C: 101%
[26]
  viability, T/C: 100%
[27]
  viability, T/C: 105%
[28]
  viability, T/C: 108%
[29]
  viability, T/C: 108%
[30]
  viability, T/C: 81.8%
[31]
  viability, T/C: 105%
[32]
  viability, T/C: 100%
[33]
  viability, T/C: 98.6%
[34]
  viability, T/C: 103%
[35]
  viability, T/C: 81.1%
[36]
  viability, T/C: 80.1%

## CC(C)n1c(=O)n(C)c2cnc3cc(F)c(-c4ccc(OCCCN5CCCCC5)nc4)cc3c21 + Cc1cccc(N(C)C(=O)C2C(O)CCN2c2nc(C)cc(C(F)(F)F)c2C#N)c1
Second compound 0.0316 µM
  IC50: > 10 µM
Second compound 0.1 µM
  IC50: > 10 µM
Second compound 0.316 µM
  IC50: > 10 µM
Second compound 1 µM
  IC50: > 10 µM
Second compound 3.16 µM
  IC50: > 10 µM
Second compound 10 µM
  IC50: > 10 µM
[1]
  viability, T/C: 104%
[2]
  viability, T/C: 98.6%
[3]
  viability, T/C: 104%
[4]
  viability, T/C: 98.2%
[5]
  viability, T/C: 99%
[6]
  viability, T/C: 92.4%
[7]
  viability, T/C: 104%
[8]
  viability, T/C: 101%
[9]
  viability, T/C: 99.4%
[10]
  viability, T/C: 100%
[11]
  viability, T/C: 98.7%
[12]
  viability, T/C: 88.6%
[13]
  viability, T/C: 101%
[14]
  viability, T/C: 91.6%
[15]
  viability, T/C: 102%
[16]
  viability, T/C: 109%
[17]
  viability, T/C: 106%
[18]
  viability, T/C: 99.8%
[19]
  viability, T/C: 110%
[20]
  viability, T/C: 93.5%
[21]
  viability, T/C: 99%
[22]
  viability, T/C: 108%
[23]
  viability, T/C: 104%
[24]
  viability, T/C: 88.1%
[25]
  viability, T/C: 98.7%
[26]
  viability, T/C: 102%
[27]
  viability, T/C: 109%
[28]
  viability, T/C: 106%
[29]
  viability, T/C: 99.3%
[30]
  viability, T/C: 92.4%
[31]
  viability, T/C: 101%
[32]
  viability, T/C: 98.8%
[33]
  viability, T/C: 97.5%
[34]
  viability, T/C: 95.8%
[35]
  viability, T/C: 97.4%
[36]
  viability, T/C: 92.5%

## CCc1cc2c(N3CCc4c(cc(Cn5ccnc5)cc4-c4cn(C)nc4C(F)(F)F)C3=O)ccnc2c(OC)n1 + Cc1cccc(N(C)C(=O)C2C(O)CCN2c2nc(C)cc(C(F)(F)F)c2C#N)c1
Second compound 0.0316 µM
  IC50: > 10 µM
Second compound 0.1 µM
  IC50: 9.08 µM
Second compound 0.316 µM
  IC50: 5.19 µM
Second compound 1 µM
  IC50: 7.18 µM
Second compound 3.16 µM
  IC50: 4.89 µM
Second compound 10 µM
  IC50: 1.98 µM
[1]
  viability, T/C: 104%
[2]
  viability, T/C: 94.4%
[3]
  viability, T/C: 86.5%
[4]
  viability, T/C: 96.9%
[5]
  viability, T/C: 60.5%
[6]
  viability, T/C: 58.8%
[7]
  viability, T/C: 113%
[8]
  viability, T/C: 104%
[9]
  viability, T/C: 99.4%
[10]
  viability, T/C: 84%
[11]
  viability, T/C: 59.7%
[12]
  viability, T/C: 49.7%
[13]
  viability, T/C: 100%
[14]
  viability, T/C: 110%
[15]
  viability, T/C: 92.3%
[16]
  viability, T/C: 85.8%
[17]
  viability, T/C: 59.8%
[18]
  viability, T/C: 36.5%
[19]
  viability, T/C: 94.7%
[20]
  viability, T/C: 79%
[21]
  viability, T/C: 100%
[22]
  viability, T/C: 77.8%
[23]
  viability, T/C: 75.1%
[24]
  viability, T/C: 40.2%
[25]
  viability, T/C: 110%
[26]
  viability, T/C: 79.9%
[27]
  viability, T/C: 93.2%
[28]
  viability, T/C: 76.1%
[29]
  viability, T/C: 64.6%
[30]
  viability, T/C: 31.6%
[31]
  viability, T/C: 87.9%
[32]
  viability, T/C: 67.9%
[33]
  viability, T/C: 60.5%
[34]
  viability, T/C: 65.8%
[35]
  viability, T/C: 46.3%
[36]
  viability, T/C: 30.5%

## COc1cc2cc(C(=O)CCC(=O)O)sc2cc1OC + Cc1cccc(N(C)C(=O)C2C(O)CCN2c2nc(C)cc(C(F)(F)F)c2C#N)c1
Second compound 0.0316 µM
  IC50: > 10 µM
Second compound 0.1 µM
  IC50: > 10 µM
Second compound 0.316 µM
  IC50: > 10 µM
Second compound 1 µM
  IC50: > 10 µM
Second compound 3.16 µM
  IC50: > 10 µM
Second compound 10 µM
  IC50: > 10 µM
[1]
  viability, T/C: 104%
[2]
  viability, T/C: 87.6%
[3]
  viability, T/C: 97.2%
[4]
  viability, T/C: 101%
[5]
  viability, T/C: 110%
[6]
  viability, T/C: 92.4%
[7]
  viability, T/C: 92.8%
[8]
  viability, T/C: 87%
[9]
  viability, T/C: 92%
[10]
  viability, T/C: 107%
[11]
  viability, T/C: 103%
[12]
  viability, T/C: 86%
[13]
  viability, T/C: 115%
[14]
  viability, T/C: 94.8%
[15]
  viability, T/C: 89.6%
[16]
  viability, T/C: 87.8%
[17]
  viability, T/C: 101%
[18]
  viability, T/C: 74.5%
[19]
  viability, T/C: 86.4%
[20]
  viability, T/C: 77.4%
[21]
  viability, T/C: 89.2%
[22]
  viability, T/C: 99.7%
[23]
  viability, T/C: 81.3%
[24]
  viability, T/C: 70.7%
[25]
  viability, T/C: 96.2%
[26]
  viability, T/C: 87.1%
[27]
  viability, T/C: 84.4%
[28]
  viability, T/C: 102%
[29]
  viability, T/C: 83.1%
[30]
  viability, T/C: 82.3%
[31]
  viability, T/C: 77.1%
[32]
  viability, T/C: 91.8%
[33]
  viability, T/C: 77.4%
[34]
  viability, T/C: 79.4%
[35]
  viability, T/C: 88.7%
[36]
  viability, T/C: 85.8%

## COc1ccc([C@@H](O)c2cc(-c3ncnc4cc(N5CCOCC5)ccc34)c(F)cc2Cl)nn1 + Cc1cccc(N(C)C(=O)C2C(O)CCN2c2nc(C)cc(C(F)(F)F)c2C#N)c1
Second compound 0.0316 µM
  IC50: > 10 µM
Second compound 0.1 µM
  IC50: 9.31 µM
Second compound 0.316 µM
  IC50: 9.22 µM
Second compound 1 µM
  IC50: > 10 µM
Second compound 3.16 µM
  IC50: > 10 µM
Second compound 10 µM
  IC50: 7.64 µM
[1]
  viability, T/C: 109%
[2]
  viability, T/C: 103%
[3]
  viability, T/C: 96.2%
[4]
  viability, T/C: 93.4%
[5]
  viability, T/C: 74.9%
[6]
  viability, T/C: 53.7%
[7]
  viability, T/C: 99.3%
[8]
  viability, T/C: 98.9%
[9]
  viability, T/C: 95%
[10]
  viability, T/C: 92.9%
[11]
  viability, T/C: 79.4%
[12]
  viability, T/C: 47.6%
[13]
  viability, T/C: 105%
[14]
  viability, T/C: 101%
[15]
  viability, T/C: 93.8%
[16]
  viability, T/C: 91.3%
[17]
  viability, T/C: 77.4%
[18]
  viability, T/C: 47.2%
[19]
  viability, T/C: 107%
[20]
  viability, T/C: 97.8%
[21]
  viability, T/C: 92.7%
[22]
  viability, T/C: 90.1%
[23]
  viability, T/C: 81.2%
[24]
  viability, T/C: 55.5%
[25]
  viability, T/C: 102%
[26]
  viability, T/C: 101%
[27]
  viability, T/C: 90.8%
[28]
  viability, T/C: 95.7%
[29]
  viability, T/C: 68.7%
[30]
  viability, T/C: 50.9%
[31]
  viability, T/C: 102%
[32]
  viability, T/C: 90.4%
[33]
  viability, T/C: 94.6%
[34]
  viability, T/C: 92.5%
[35]
  viability, T/C: 69.7%
[36]
  viability, T/C: 44%

— PubChem BioAssay AID1963842 (Molecular Pharmacology Branch, DTP, NCI, 2024)
